{"source": "patent US20260248135A1", "about": "“HERBICIDAL COMBINATIONS AND A METHOD FOR CONTROLLING UNDESIRED VEGETATION” (UPL Mauritius Limited, priority 2022, published 2026)", "assay_type_in_all_cases": "in vivo", "key": {"Brachiaria decumbens [1]": {"tested_on": "Brachiaria decumbens", "test": "Post-emergence herbicidal efficacy, Example 3 (L-glufosinate ammonium, saflufenacil and 2,4-D)", "method": "(§1) Methodology: Trials were carried out to evaluate the efficacy of the combination comprising L-glufosinate ammonium and additional herbicides on Brachiaria decumbens weed.\n(§2) The soil used was sandy clay loam-sand: 68.0%; silt: 8.0%; clay: 24.0%.\n(§3) All treatments were in 3 replications per treatment with a spray volume of about 150 L/ha.\n(§4) The expected efficacy of a combination of L-glufosinate ammonium and the other herbicides was calculated using the well-established Colby method. Any difference between the observed and “expected” efficacy could be attributed to synergy between the two compounds.\n(§5) In the Colby method, the expected (or predicted) response of a combination of herbicides is calculated by taking the product of the observed response for each individual component of the combination when applied alone, divided by 100, and subtracting this value from the sum of the observed response for each component when applied alone. An unexpected enhancement in efficacy of the combination is then determined by comparing the observed response of the combination to the expected (or predicted) response as calculated from the observed response of each individual component alone. If the observed response of the combination is greater than the expected (or predicted) response, or stated conversely, if the difference between the observed and expected response is greater than zero, then the combination is said to be synergistic or unexpectedly effective (Colby, S. R., Weeds, 1967 (15), p. 20-22). The Colby method requires only a single dose of each herbicide applied alone and the mixture of both doses. The formula used to calculate the expected efficacy (EE) which was compared with the observed efficacy (OE) to determine the efficacy of the present disclosure is explained hereinbelow:\n(§6) The expected efficacy for a combination of three active ingredients is as follows:\n(§7) wherein, • A=Observed efficacy of active ingredient A at the same concentration as used in the mixture. • B=Observed efficacy of the active ingredient B at the same concentration as used in the mixture. • C=Observed efficacy of the active ingredient C at the same concentration as used in the mixture.\nExperiment was conducted to assess the efficacy of the herbicidal combination comprising L-glufosinate ammonium, saflufenacil and 2,4-D to control the weed Brachiaria decumbens.\nThe target weed was Brachiaria decumbens, and the concentration of the herbicide and the results are recorded in Table 4."}, "Brachiaria decumbens [2]": {"tested_on": "Brachiaria decumbens", "test": "Post-emergence herbicidal efficacy, Example 1 (L-glufosinate ammonium and saflufenacil)", "method": "as §1, §2, §3, §4, §5\nThe expected efficacy for a combination of two active ingredients is as follows:\nas §7\nExperiment was conducted to assess the efficacy of the herbicidal combination comprising L-glufosinate ammonium and saflufenacil to control Brachiaria decumbens.\nThe percentage efficacy was calculated after 3, 7, 14, 21, 28 and 35 days of applications (DAA). The target weed was Brachiaria decumbens, and the results are recorded in Table 2."}, "Brachiaria decumbens [3]": {"tested_on": "Brachiaria decumbens", "test": "Post-emergence herbicidal efficacy, Example 2 (L-glufosinate ammonium, saflufenacil and triclopyr)", "method": "as §1, §2, §3, §4, §5, §6, §7\nExperiment was conducted to assess the efficacy of the herbicidal combination comprising L-glufosinate ammonium, saflufenacil and triclopyr to control the weed Brachiaria decumbens.\nThe percentage efficacy was calculated after 3, 7, 14, 21, 28 and 35 days of application (DAA). The target weed was Brachiaria decumbens, and the concentration of the herbicide and the results are recorded in Table 3."}}, "data": [{"smiles": "O=C(O)COc1ccc(Cl)cc1Cl", "note": "[2,4-D]", "values": [{"measurement": "Observed efficacy (%) of 2,4-D (228 g a.i./ha)", "setting": "Brachiaria decumbens [1]; 3 DAA", "value": 0, "unit": "%"}, {"measurement": "Observed efficacy (%) of 2,4-D (228 g a.i./ha)", "setting": "Brachiaria decumbens [1]; 7 DAA", "value": 0, "unit": "%"}, {"measurement": "Observed efficacy (%) of 2,4-D (228 g a.i./ha)", "setting": "Brachiaria decumbens [1]; 14 DAA", "value": 0, "unit": "%"}, {"measurement": "Observed efficacy (%) of 2,4-D (228 g a.i./ha)", "setting": "Brachiaria decumbens [1]; 21 DAA", "value": 0, "unit": "%"}, {"measurement": "Observed efficacy (%) of 2,4-D (228 g a.i./ha)", "setting": "Brachiaria decumbens [1]; 28 DAA", "value": 0, "unit": "%"}, {"measurement": "Observed efficacy (%) of 2,4-D (228 g a.i./ha)", "setting": "Brachiaria decumbens [1]; 35 DAA", "value": 0, "unit": "%"}]}, {"smiles": "CC(C)N(C)S(=O)(=O)NC(=O)c1cc(-n2c(=O)cc(C(F)(F)F)n(C)c2=O)c(F)cc1Cl", "note": "[Saflufenacil]", "values": [{"measurement": "Observed efficacy (%) of Saflufenacil (30 g a.i./ha)", "setting": "Brachiaria decumbens [2]; 3 DAA", "value": 30, "unit": "%"}, {"measurement": "Observed efficacy (%) of Saflufenacil (30 g a.i./ha)", "setting": "Brachiaria decumbens [2]; 7 DAA", "value": 30, "unit": "%"}, {"measurement": "Observed efficacy (%) of Saflufenacil (30 g a.i./ha)", "setting": "Brachiaria decumbens [2]; 14 DAA", "value": 25, "unit": "%"}, {"measurement": "Observed efficacy (%) of Saflufenacil (30 g a.i./ha)", "setting": "Brachiaria decumbens [2]; 21 DAA", "value": 10, "unit": "%"}, {"measurement": "Observed efficacy (%) of Saflufenacil (30 g a.i./ha)", "setting": "Brachiaria decumbens [2]; 28 DAA", "value": 0, "unit": "%"}, {"measurement": "Observed efficacy (%) of Saflufenacil (30 g a.i./ha)", "setting": "Brachiaria decumbens [2]; 35 DAA", "value": 0, "unit": "%"}, {"measurement": "Observed efficacy (%) of Saflufenacil (30 g a.i./ha)", "setting": "Brachiaria decumbens [3]; 3 DAA", "value": 30, "unit": "%"}, {"measurement": "Observed efficacy (%) of Saflufenacil (30 g a.i./ha)", "setting": "Brachiaria decumbens [3]; 7 DAA", "value": 30, "unit": "%"}, {"measurement": "Observed efficacy (%) of Saflufenacil (30 g a.i./ha)", "setting": "Brachiaria decumbens [3]; 14 DAA", "value": 20, "unit": "%"}, {"measurement": "Observed efficacy (%) of Saflufenacil (30 g a.i./ha)", "setting": "Brachiaria decumbens [3]; 21 DAA", "value": 5, "unit": "%"}, {"measurement": "Observed efficacy (%) of Saflufenacil (30 g a.i./ha)", "setting": "Brachiaria decumbens [3]; 28 DAA", "value": 0, "unit": "%"}, {"measurement": "Observed efficacy (%) of Saflufenacil (30 g a.i./ha)", "setting": "Brachiaria decumbens [3]; 35 DAA", "value": 0, "unit": "%"}, {"measurement": "Observed efficacy (%) of Saflufenacil (30 g a.i./ha)", "setting": "Brachiaria decumbens [1]; 3 DAA", "value": 30, "unit": "%"}, {"measurement": "Observed efficacy (%) of Saflufenacil (30 g a.i./ha)", "setting": "Brachiaria decumbens [1]; 7 DAA", "value": 30, "unit": "%"}, {"measurement": "Observed efficacy (%) of Saflufenacil (30 g a.i./ha)", "setting": "Brachiaria decumbens [1]; 14 DAA", "value": 20, "unit": "%"}, {"measurement": "Observed efficacy (%) of Saflufenacil (30 g a.i./ha)", "setting": "Brachiaria decumbens [1]; 21 DAA", "value": 5, "unit": "%"}, {"measurement": "Observed efficacy (%) of Saflufenacil (30 g a.i./ha)", "setting": "Brachiaria decumbens [1]; 28 DAA", "value": 0, "unit": "%"}, {"measurement": "Observed efficacy (%) of Saflufenacil (30 g a.i./ha)", "setting": "Brachiaria decumbens [1]; 35 DAA", "value": 0, "unit": "%"}]}, {"smiles": "O=C(O)COc1nc(Cl)c(Cl)cc1Cl", "note": "[Triclopyr]", "values": [{"measurement": "Observed efficacy (%) of Triclopyr (228 g a.i./ha)", "setting": "Brachiaria decumbens [3]; 3 DAA", "value": 0, "unit": "%"}, {"measurement": "Observed efficacy (%) of Triclopyr (228 g a.i./ha)", "setting": "Brachiaria decumbens [3]; 7 DAA", "value": 0, "unit": "%"}, {"measurement": "Observed efficacy (%) of Triclopyr (228 g a.i./ha)", "setting": "Brachiaria decumbens [3]; 14 DAA", "value": 20, "unit": "%"}, {"measurement": "Observed efficacy (%) of Triclopyr (228 g a.i./ha)", "setting": "Brachiaria decumbens [3]; 21 DAA", "value": 10, "unit": "%"}, {"measurement": "Observed efficacy (%) of Triclopyr (228 g a.i./ha)", "setting": "Brachiaria decumbens [3]; 28 DAA", "value": 5, "unit": "%"}, {"measurement": "Observed efficacy (%) of Triclopyr (228 g a.i./ha)", "setting": "Brachiaria decumbens [3]; 35 DAA", "value": 0, "unit": "%"}]}, {"smiles": "CP(=O)(O)CC[C@H](N)C(=O)O.N", "note": "[L-glufosinate ammonium]", "values": [{"measurement": "Observed efficacy (%) of L-glufosinate ammonium (150 g a.i./ha)", "setting": "Brachiaria decumbens [2]; 3 DAA", "value": 65, "unit": "%"}, {"measurement": "Observed efficacy (%) of L-glufosinate ammonium (150 g a.i./ha)", "setting": "Brachiaria decumbens [2]; 7 DAA", "value": 75, "unit": "%"}, {"measurement": "Observed efficacy (%) of L-glufosinate ammonium (150 g a.i./ha)", "setting": "Brachiaria decumbens [2]; 14 DAA", "value": 75, "unit": "%"}, {"measurement": "Observed efficacy (%) of L-glufosinate ammonium (150 g a.i./ha)", "setting": "Brachiaria decumbens [2]; 21 DAA", "value": 70, "unit": "%"}, {"measurement": "Observed efficacy (%) of L-glufosinate ammonium (150 g a.i./ha)", "setting": "Brachiaria decumbens [2]; 28 DAA", "value": 60, "unit": "%"}, {"measurement": "Observed efficacy (%) of L-glufosinate ammonium (150 g a.i./ha)", "setting": "Brachiaria decumbens [2]; 35 DAA", "value": 55, "unit": "%"}, {"measurement": "Observed efficacy (%) of L-glufosinate ammonium (150 g a.i./ha)", "setting": "Brachiaria decumbens [3]; 3 DAA", "value": 65, "unit": "%"}, {"measurement": "Observed efficacy (%) of L-glufosinate ammonium (150 g a.i./ha)", "setting": "Brachiaria decumbens [3]; 7 DAA", "value": 75, "unit": "%"}, {"measurement": "Observed efficacy (%) of L-glufosinate ammonium (150 g a.i./ha)", "setting": "Brachiaria decumbens [3]; 14 DAA", "value": 75, "unit": "%"}, {"measurement": "Observed efficacy (%) of L-glufosinate ammonium (150 g a.i./ha)", "setting": "Brachiaria decumbens [3]; 21 DAA", "value": 70, "unit": "%"}, {"measurement": "Observed efficacy (%) of L-glufosinate ammonium (150 g a.i./ha)", "setting": "Brachiaria decumbens [3]; 28 DAA", "value": 65, "unit": "%"}, {"measurement": "Observed efficacy (%) of L-glufosinate ammonium (150 g a.i./ha)", "setting": "Brachiaria decumbens [3]; 35 DAA", "value": 60, "unit": "%"}, {"measurement": "Observed efficacy (%) of L-glufosinate ammonium (150 g a.i./ha)", "setting": "Brachiaria decumbens [1]; 3 DAA", "value": 65, "unit": "%"}, {"measurement": "Observed efficacy (%) of L-glufosinate ammonium (150 g a.i./ha)", "setting": "Brachiaria decumbens [1]; 7 DAA", "value": 75, "unit": "%"}, {"measurement": "Observed efficacy (%) of L-glufosinate ammonium (150 g a.i./ha)", "setting": "Brachiaria decumbens [1]; 14 DAA", "value": 75, "unit": "%"}, {"measurement": "Observed efficacy (%) of L-glufosinate ammonium (150 g a.i./ha)", "setting": "Brachiaria decumbens [1]; 21 DAA", "value": 70, "unit": "%"}, {"measurement": "Observed efficacy (%) of L-glufosinate ammonium (150 g a.i./ha)", "setting": "Brachiaria decumbens [1]; 28 DAA", "value": 65, "unit": "%"}, {"measurement": "Observed efficacy (%) of L-glufosinate ammonium (150 g a.i./ha)", "setting": "Brachiaria decumbens [1]; 35 DAA", "value": 60, "unit": "%"}]}]}
